According to ChEMBL document CHEMBL1201862, “PubChem BioAssay data set” (2004):
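How tested: cells in 96-well plates exposed to compound for 48 hours at five concentrations. Abbreviation: GI50, concentration required for 50% inhibition of growth.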 Active and inactive are the calls of the source. Rule as the data show it: active = GI50 up to about 1.1 µM and inactive = higher.

Key:
Experiment in all cases: DTP human tumour cell line panel, 48 h
786-0 = test system: 786-0
A498 = test system: A498
A549 = test system: A549
ACHN = test system: ACHN
BT-549 = test system: BT-549
CAKI-1 = test system: CAKI-1
CCRF-CEM = test system: CCRF-CEM
DU-145 = test system: DU-145
EKVX = test system: EKVX
HCC 2998 = test system: HCC 2998
HCT-116 = test system: HCT-116
HCT-15 = test system: HCT-15
HL-60 = test system: HL-60
HOP-62 = test system: HOP-62
HOP-92 = test system: HOP-92
HT-29 = test system: HT-29
Hs-578T = test system: Hs-578T
IGROV-1 = test system: IGROV-1
K562 = test system: K562
KM12 = test system: KM12
LOX IMVI = test system: LOX IMVI
M14 = test system: M14
MCF7 = test system: MCF7
MDA-MB-435 = test system: MDA-MB-435
MDA-N = test system: MDA-N
MOLT-4 = test system: MOLT-4
Malme-3M = test system: Malme-3M
NCI-H226 = test system: NCI-H226
NCI-H23 = test system: NCI-H23
NCI-H460 = test system: NCI-H460
NCI-H522 = test system: NCI-H522
NCI/ADR-RES = test system: NCI/ADR-RES
OVCAR-3 = test system: OVCAR-3
OVCAR-4 = test system: OVCAR-4
OVCAR-5 = test system: OVCAR-5
OVCAR-8 = test system: OVCAR-8
PC-3 = test system: PC-3
RPMI-8226 = test system: RPMI-8226
SF-268 = test system: SF-268
SF-295 = test system: SF-295
SF-539 = test system: SF-539
SK-MEL-2 = test system: SK-MEL-2
SK-MEL-5 = test system: SK-MEL-5
SK-OV-3 = test system: SK-OV-3
SN12C = test system: SN12C
SNB-19 = test system: SNB-19
SNB-75 = test system: SNB-75
SW-620 = test system: SW-620
TK-10 = test system: TK-10
U-251 = test system: U-251
UACC-257 = test system: UACC-257
UACC-62 = test system: UACC-62
UO-31 = test system: UO-31

COc1ccc(COC(=O)NNC(=O)C2CSC(c3ccccc3)N2C(C)=O)cc1 (stereo not drawn)
GI50 (786-0): > 100 µM (inactive) | GI50 (A498): > 100 µM (inactive) | GI50 (A549): > 100 µM (inactive) | GI50 (ACHN): > 100 µM (inactive) | GI50 (BT-549): > 100 µM (inactive) | GI50 (CAKI-1): > 100 µM (inactive) | GI50 (CCRF-CEM): > 100 µM (inactive) | GI50 (DU-145): > 100 µM (inactive) | GI50 (EKVX): > 100 µM (inactive) | GI50 (HCC 2998): > 100 µM (inactive) | GI50 (HCT-116): > 100 µM (inactive) | GI50 (HCT-15): > 100 µM | GI50 (HL-60): > 100 µM (inactive) | GI50 (HOP-62): > 100 µM (inactive) | GI50 (HOP-92): > 100 µM (inactive) | GI50 (HT-29): > 100 µM (inactive) | GI50 (Hs-578T): > 100 µM (inactive) | GI50 (IGROV-1): > 100 µM (inactive) | GI50 (K562): > 100 µM (inactive) | GI50 (KM12): > 100 µM (inactive) | GI50 (LOX IMVI): > 100 µM (inactive) | GI50 (M14): > 100 µM (inactive) | GI50 (MCF7): > 100 µM (inactive) | GI50 (MDA-MB-435): > 100 µM (inactive) | GI50 (MDA-N): > 100 µM (inactive) | GI50 (MOLT-4): > 100 µM (inactive) | GI50 (Malme-3M): > 100 µM (inactive) | GI50 (NCI-H226): > 100 µM (inactive) | GI50 (NCI-H23): > 100 µM (inactive) | GI50 (NCI-H460): > 100 µM (inactive) | GI50 (NCI-H522): > 100 µM (inactive) | GI50 (NCI/ADR-RES): > 100 µM (inactive) | GI50 (OVCAR-3): > 100 µM (inactive) | GI50 (OVCAR-4): > 100 µM (inactive) | GI50 (OVCAR-5): > 100 µM (inactive) | GI50 (OVCAR-8): > 100 µM (inactive) | GI50 (PC-3): > 100 µM (inactive) | GI50 (RPMI-8226): > 100 µM (inactive) | GI50 (SF-268): > 100 µM (inactive) | GI50 (SF-295): > 100 µM (inactive) | GI50 (SF-539): > 100 µM (inactive) | GI50 (SK-MEL-2): > 100 µM (inactive) | GI50 (SK-MEL-5): > 100 µM (inactive) | GI50 (SK-OV-3): > 100 µM (inactive) | GI50 (SN12C): > 100 µM (inactive) | GI50 (SNB-19): > 100 µM (inactive) | GI50 (SNB-75): > 100 µM (inactive) | GI50 (SW-620): > 100 µM (inactive) | GI50 (TK-10): > 100 µM (inactive) | GI50 (U-251): > 100 µM (inactive) | GI50 (UACC-257): > 100 µM (inactive) | GI50 (UACC-62): > 100 µM (inactive) | GI50 (UO-31): > 100 µM (inactive)
